Data taken from PubChem BioAssay AID1963873 (Molecular Pharmacology Branch, DTP, NCI, 2024).

Test system: 276233-004-R-J1-PDC KRAS spheroids with HUVEC/MSC, viability
Experiment: Anticancer human tumor 276233-004-R-J1-PDC patient-derived colon adenocarcinoma cell line growth inhibition [KRAS2]
Conditions: for IC50: curve of first compound; for viability, T/C: stronger effect = lower value
How it was run: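 KRAS-mutant tumor cells were grown as spheroids with HUVEC endothelial cells and human MSCs as stroma. Targeted agents were tested alone and with KRAS pathway inhibitors. Doses started at or near clinical Cmax, or 10 microM, descending half-log.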

[1] = second compound 0.1 µM, first compound 0.000316 µM
[2] = second compound 0.1 µM, first compound 0.001 µM
[3] = second compound 0.1 µM, first compound 0.00316 µM
[4] = second compound 0.1 µM, first compound 0.01 µM
[5] = second compound 0.1 µM, first compound 0.0316 µM
[6] = second compound 0.1 µM, first compound 0.1 µM
[7] = second compound 0.316 µM, first compound 0.000316 µM
[8] = second compound 0.316 µM, first compound 0.001 µM
[9] = second compound 0.316 µM, first compound 0.00316 µM
[10] = second compound 0.316 µM, first compound 0.01 µM
[11] = second compound 0.316 µM, first compound 0.0316 µM
[12] = second compound 0.316 µM, first compound 0.1 µM
[13] = second compound 1 µM, first compound 0.000316 µM
[14] = second compound 1 µM, first compound 0.001 µM
[15] = second compound 1 µM, first compound 0.00316 µM
[16] = second compound 1 µM, first compound 0.01 µM
[17] = second compound 1 µM, first compound 0.0316 µM
[18] = second compound 1 µM, first compound 0.1 µM
[19] = second compound 3.16 µM, first compound 0.000316 µM
[20] = second compound 3.16 µM, first compound 0.001 µM
[21] = second compound 3.16 µM, first compound 0.00316 µM
[22] = second compound 3.16 µM, first compound 0.01 µM
[23] = second compound 3.16 µM, first compound 0.0316 µM
[24] = second compound 3.16 µM, first compound 0.1 µM
[25] = second compound 10 µM, first compound 0.000316 µM
[26] = second compound 10 µM, first compound 0.001 µM
[27] = second compound 10 µM, first compound 0.00316 µM
[28] = second compound 10 µM, first compound 0.01 µM
[29] = second compound 10 µM, first compound 0.0316 µM
[30] = second compound 10 µM, first compound 0.1 µM
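Also: cells exposed to agents for seven days before viability read.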
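For viability, T/C in this document: 100% = DMSO vehicle control wells and lower values mean fewer viable cells.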

SMILES: Cn1ncnc1[C@H]1c2n[nH]c(=O)c3cc(F)cc(c23)N[C@@H]1c1ccc(F)cc1 + COc1cc2nc(C)nc(NC(C)c3cc(N)cc(C(F)(F)F)c3)c2cc1OC1CCOC1
- IC50 (second compound 0.1 µM): > 100 nM
- IC50 (second compound 0.316 µM): > 100 nM
- IC50 (second compound 1 µM): > 100 nM
- IC50 (second compound 3.16 µM): > 100 nM
- IC50 (second compound 10 µM): < 0.316 nM
- viability, T/C [1]: 90%
- viability, T/C [2]: 81%
- viability, T/C [3]: 76.2%
- viability, T/C [4]: 87.1%
- viability, T/C [5]: 89.7%
- viability, T/C [6]: 76%
- viability, T/C [7]: 89.1%
- viability, T/C [8]: 96.7%
- viability, T/C [9]: 84.7%
- viability, T/C [10]: 83.6%
- viability, T/C [11]: 87.9%
- viability, T/C [12]: 83.2%
- viability, T/C [13]: 83.3%
- viability, T/C [14]: 91%
- viability, T/C [15]: 82.6%
- viability, T/C [16]: 85%
- viability, T/C [17]: 87.6%
- viability, T/C [18]: 79.5%
- viability, T/C [19]: 85.3%
- viability, T/C [20]: 90.9%
- viability, T/C [21]: 85.2%
- viability, T/C [22]: 99.5%
- viability, T/C [23]: 68.1%
- viability, T/C [24]: 86.1%
- viability, T/C [25]: 33.7%
- viability, T/C [26]: 40.1%
- viability, T/C [27]: 29.1%
- viability, T/C [28]: 34.8%
- viability, T/C [29]: 29.4%
- viability, T/C [30]: 27.2%

SMILES: CC1OCC2(CCN(c3cnc(Sc4ccnc(N)c4Cl)c(N)n3)CC2)C1N (stereo not given) + C=CC(=O)N1CCN(c2nc(OCC3CCCN3C)nc3c2CCN(c2cccc4cccc(C)c24)C3)CC1CC#N
- IC50 (second compound 0.0316 µM): > 10000 nM
- IC50 (second compound 0.1 µM): > 10000 nM
- IC50 (second compound 0.316 µM): > 10000 nM
- IC50 (second compound 1 µM): 9490 nM
- IC50 (second compound 3.16 µM): 521 nM
- viability, T/C (second compound 0.0316 µM, first compound 0.0316 µM): 105%
- viability, T/C (second compound 0.0316 µM, first compound 0.1 µM): 90.5%
- viability, T/C (second compound 0.0316 µM, first compound 0.316 µM): 91.2%
- viability, T/C (second compound 0.0316 µM, first compound 1 µM): 85.7%
- viability, T/C (second compound 0.0316 µM, first compound 3.16 µM): 70.2%
- viability, T/C (second compound 0.0316 µM, first compound 10 µM): 59.8%
- viability, T/C [5]: 98.2%
- viability, T/C [6]: 85%
- viability, T/C (second compound 0.1 µM, first compound 0.316 µM): 81.5%
- viability, T/C (second compound 0.1 µM, first compound 1 µM): 69.3%
- viability, T/C (second compound 0.1 µM, first compound 3.16 µM): 68.7%
- viability, T/C (second compound 0.1 µM, first compound 10 µM): 56.3%
- viability, T/C [11]: 102%
- viability, T/C [12]: 98.7%
- viability, T/C (second compound 0.316 µM, first compound 0.316 µM): 83.4%
- viability, T/C (second compound 0.316 µM, first compound 1 µM): 76.7%
- viability, T/C (second compound 0.316 µM, first compound 3.16 µM): 67%
- viability, T/C (second compound 0.316 µM, first compound 10 µM): 55.3%
- viability, T/C [17]: 98.2%
- viability, T/C [18]: 84.7%
- viability, T/C (second compound 1 µM, first compound 0.316 µM): 81.2%
- viability, T/C (second compound 1 µM, first compound 1 µM): 83.5%
- viability, T/C (second compound 1 µM, first compound 3.16 µM): 63.5%
- viability, T/C (second compound 1 µM, first compound 10 µM): 49%
- viability, T/C [23]: 69.1%
- viability, T/C [24]: 60.4%
- viability, T/C (second compound 3.16 µM, first compound 0.316 µM): 58.2%
- viability, T/C (second compound 3.16 µM, first compound 1 µM): 39.7%
- viability, T/C (second compound 3.16 µM, first compound 3.16 µM): 35.9%
- viability, T/C (second compound 3.16 µM, first compound 10 µM): 39%

SMILES: CN(C)C/C=C/C(=O)Nc1cc2c(Nc3ccc(F)c(Cl)c3)ncnc2cc1O[C@H]1CCOC1 + CNCc1ccccc1-c1csc(C(C)Nc2nc(C)nc3cc(OC)c(OC)cc23)c1
- IC50 (second compound 0.1 µM): > 100 nM
- IC50 (second compound 0.316 µM): > 100 nM
- IC50 (second compound 1 µM): > 100 nM
- IC50 (second compound 3.16 µM): < 0.316 nM
- IC50 (second compound 10 µM): < 0.316 nM
- viability, T/C [1]: 95.8%
- viability, T/C [2]: 106%
- viability, T/C [3]: 89%
- viability, T/C [4]: 95.2%
- viability, T/C [5]: 86.8%
- viability, T/C [6]: 74.7%
- viability, T/C [7]: 95.9%
- viability, T/C [8]: 82.5%
- viability, T/C [9]: 83.1%
- viability, T/C [10]: 73%
- viability, T/C [11]: 67.9%
- viability, T/C [12]: 69.8%
- viability, T/C [13]: 81.4%
- viability, T/C [14]: 73.5%
- viability, T/C [15]: 77.3%
- viability, T/C [16]: 81.2%
- viability, T/C [17]: 63%
- viability, T/C [18]: 79.2%
- viability, T/C [19]: 4.26%
- viability, T/C [20]: 2.41%
- viability, T/C [21]: 3.56%
- viability, T/C [22]: 3.46%
- viability, T/C [23]: 8.28%
- viability, T/C [24]: 1.18%
- viability, T/C [25]: 5.68%
- viability, T/C [26]: 0.19%
- viability, T/C [27]: 0.31%
- viability, T/C [28]: 0.19%
- viability, T/C [29]: 0.88%
- viability, T/C [30]: 0.67%
